From US12679837B2, “Aminopyrimidine compound as CDK2/4/6 triple inhibitor” (CISEN PHARMACEUTICAL CO., LTD, priority 2019, dated 2026) come the findings set out here.

One experiment concerns the target T1, CDK2/CyclinA2 (Homo sapiens, UniProt P24941).
T1 construct: purchased Promega
Kind of experiment: CDK2/CyclinA2 kinase activity test (ADP-Glo). The class given is biochemical. As to conditions: 50 μM ATP, 25° C., 60 minutes; read-out: Enzyme activity data (IC50) CDK2/cyclinA. The procedure: Experimental materials: CDK2/CyclinA2 kinase detection kit was purchased from Promega. Nivo Multilabel Analyzer (PerkinElmer).
Experimental method: Kinase buffer dilution enzyme in the kit, substrate, adenosine triphosphate and inhibitor were used. The compounds to be tested were diluted 5-fold to the 8th concentration with a row gun, that is, from 50 μM to 0.65 nM, the concentration of DMSO was 5%, and a double-replicate well experiment was set up. 1 μL of each concentration gradient of inhibitor, 2 μL of CDK2/CyclinA2 enzyme (1.6 ng), and 2 μL of a mixture of substrate and ATP (50 μM of adenosine triphosphate, 0.1 μg/μL of substrate) were added to the microplate, and at this time, the final concentration gradient of compound was diluted from 10 μM to 0.13 nM. The reaction system was placed at 25° C. and reacted for 60 minutes. After the reaction was complete, 5 μL of ADP-Glo reagent was added to each well, and the reaction was continued at 25° C. for 40 minutes. At the end of the reaction, 10 μL of kinase detection reagent was added to each well. After the reaction was continued at 25° C. for 30 minutes, the chemiluminescence was read by a multi-label analyzer with an integration time of 0.5 seconds.
Using the equation (Sample−Min)/(Max−Min)×100% to convert the original data into inhibition rate, the IC50 value can be obtained by curve fitting with four parameters (obtained by the mode of log(inhibitor) vs. response—Variable slope in GraphPad Prism). Table 1 provides the enzymatic inhibitory activities of the compounds of the present invention on CDK2/CyclinA2, CDK2/CyclinE1, CDK4/CyclinD1, CDK6/CyclinD1, CDK9/CyclinT1.
Background: In ADP-Glo the light output rises with the ADP produced.

A further experiment has as its target T2, CDK4/CyclinD1 (Homo sapiens, UniProt P11802).
T2 construct: purchased Invitrogen
Kind of experiment: CDK4/CyclinD1 kinase activity test (LANCE Ultra TR-FRET). The format is biochemical. As to conditions: 350 μM ATP, 25° C., 120 minutes; read-out: Enzyme activity data (IC50) CDK4/cyclinD1. The procedure:
Experimental materials: CDK4/CyclinD1 kinase was purchased from Invitrogen, reaction substrate LANCE Ultra ULight™-4E-BP-1 (Thr37146) Peptide and EU-ANTI-P-4EBP1 (THR37/46) were purchased from PerkinElmer. Nivo Multilabel Analyzer (PerkinElmer).
(§1) Experimental method: preparation of kinase buffer: The components of the buffer include: 50 mM of hydroxyethylpiperazine […] solution with pH 7.5, 1 mM of EDTA, 10 mM of magnesium chloride, 0.01% lauryl polyoxyethylene ether (Brij-35), 2 mM of enzyme dithiothreitol, kinase buffer dilution enzyme, substrate LANCE Ultra ULight™-4E-BP-1 (Thr37146) Peptide, adenosine triphosphate and inhibitor. […] The reaction system was continued at 25° C. for 120 minutes. After the reaction was complete, a mixture of 5 μL of EDTA and 2× LANCE™ Detection Buffer (1:1) was added to each well, and reacted at 25° C. for 5 minutes, after the reaction was complete, 5 μL of LANCE Ultra Eu-anti-P-4E-BP1(Thr37MS) (4 nM) was added to each well, and reacted at 25° C. for 60 minutes, the reaction signal was detected by Nivo instrument according to the principle of time-resolved fluorescence resonance energy transfer.
(§2) Table 1 provides the enzymatic inhibitory activities of the compounds of the present invention on CDK2/CyclinA2, CDK2/CyclinE1, CDK4/CyclinD1, CDK6/CyclinD1, CDK9/CyclinT1.

The next experiment deals with T3, CDK6/CyclinD1 (Homo sapiens, UniProt Q00534).
T3 construct: purchased Carna
Kind of experiment: CDK6/CyclinD1 kinase activity test (LANCE Ultra TR-FRET). The format is biochemical. As to conditions: 250 μM ATP, 25° C., 120 minutes; read-out: Enzyme activity data (IC50) CDK6/cyclinD1. As for the experimental part: Experimental materials: CDK6/CyclinD1 kinase was purchased from Carna, reaction substrate LANCE Ultra ULight™-4E-BP-1 (Thr37146) Peptide and EU-ANTI-P-4EBP1 (THR37/46) were purchased from PerkinElmer. Nivo Multilabel Analyzer (PerkinElmer).
as §1, §2
Background: TR-FRET usually uses a lanthanide donor and a delayed reading to cut background.

The target in another experiment is T4, CDK9/CyclinT1 (Homo sapiens, UniProt P50750).
T4 construct: purchased Carna
Kind of experiment: CDK9/CyclinT1 kinase activity assay (ADP-Glo). The format is biochemical. The conditions noted are these: 100 μM ATP, 25° C., 60 minutes; read-out: Enzyme activity data (IC50) CDK9/CyclinT1. The procedure:
Experimental materials: CDK9/CyclinT1 kinase was purchased from Carna, the ADP-Glo detection kit was purchased from Promega, the PKDTide substrate and kinase reaction buffer were purchased from Signalchem. Nivo Multilabel Analyzer (PerkinElmer).
Experimental method: Kinase buffer dilution enzyme in the kit, substrate, adenosine triphosphate and inhibitor were used. […] The reaction system was placed at 25° C. and reacted for 60 minutes. After the reaction was complete, 5 μL of ADP-Glo reagent was added to each well, and the reaction was continued at 25° C. for 40 minutes. At the end of the reaction, 10 μL of kinase detection reagent was added to each well. After the reaction was continued at 25° C. for 30 minutes, the chemiluminescence was read by a multi-label analyzer with an integration time of 0.5 seconds.
as §2

Another experiment concerns HCC1806 cells. Kind of experiment: HCC1806 cell activity test (CyQUANT). The format is cell-based. As to conditions: Homo sapiens, 168 h, 7 days, read-out: Antiproliferative activity (IC50) HCC1806. The procedure: Experimental materials: RPMI-1640 medium, fetal bovine serum, penicillin/streptomycin antibiotics were purchased from Vicente. CyQUANT Cell Proliferation Assays (Cell proliferation assay kit) reagents were purchased from ThermoFisher. The HCC1806 cell line was purchased from Cobioer Biosciences Co., Ltd. Nivo Multilabel Analyzer (PerkinElmer).
Experimental method: HCC1806 cells were seeded in a white 96-well plate, 80 μL of cell suspension per well, which contained 3000 HCC1806 cells. The cell plate was incubated overnight in a carbon dioxide incubator. The compounds to be tested were diluted 5-fold to the 9th concentration with a row gun, that is, from 10 mM to 25.6 nM, and a double-replicate well experiment was set up. 78 μL of medium was added to the middle plate, and then transferred 2 μL per well of the gradient diluted compound to the middle plate according to the corresponding position, mixed well and transferred 20 μL per well to the cell plate. […] After reaching the incubation time, the cell supernatant was removed, and the cell plate was placed in a −80° C. refrigerator for 1 hour, after which 100 μL of Cyquant reagent was added to each well, and a multi-label analyzer was used for reading. Another cell plate was prepared, and the signal value was read as the maximum value (Max value in the equation below) on the day of drug addition to participate in data analysis. […]

A further experiment concerns MDA-MB-468 cells. Description: MDA-MB-468 cell activity test (CellTiter-Glo). The conditions noted are these: Homo sapiens, 168 h; MDA-MB-468 cells (Rb-negative), 7 days; read-out: Antiproliferative activity (IC50) MDA-MB-468. The class given is cell-based. The procedure:
Experimental materials: L15 medium, fetal bovine serum, penicillin/streptomycin antibiotics were purchased from Vicente. CellTiter-Glo (chemiluminescence detection reagent for cell viability) reagent was purchased from Promega. The MDA-MB-468 cell line was purchased from Cobioer Biosciences Co., Ltd. Nivo Multilabel Analyzer (PerkinElmer).
(§3) Experimental method: MDA-MB-468 cells were seeded in a white 96-well plate, 80 μL of cell suspension per well, which contained 1000 MDA-MB-468 cells. The cell plate was incubated overnight in a carbon dioxide incubator. The compounds to be tested were diluted 5-fold to the 9th concentration with a row gun, that is, from 10 mM to 25.6 nM, and a double-replicate well experiment was set up. 78 μL of medium was added to the middle plate, and then transferred 2 μL per well of the gradient diluted compound to the middle plate according to the corresponding position, mixed well and transferred 20 μL per well to the cell plate. The concentration of compound transferred to the cell plate ranged from 50 μM to 0.128 nM. The cell plate was incubated in a carbon dioxide incubator for 7 days. Another cell plate was prepared, and the signal value was read as the maximum value (Max value in the equation below) on the day of drug addition to participate in data analysis. 25 μL of chemiluminescence detection reagent for cell viability was added to each well of the cell plate, and incubated at room temperature for 10 minutes to stabilize the luminescence signal. A multi-label analyzer was used for reading.
Data analysis: Using the equation (Sample−Min)/(Max−Min)×100% to convert the original data into inhibition rate, the IC50 value can be obtained by curve fitting with four parameters (obtained by the mode of log(inhibitor) vs. response—Variable slope in GraphPad Prism).

The test system of another experiment is HCT116 cells. Kind of experiment: HCT116 cell activity test (CellTiter-Glo). The class given is cell-based. As to conditions: Homo sapiens, HCT-116, 96 h, 4 days, read-out: Antiproliferative activity (IC50) HCT 116. The procedure: Experimental materials: McCoy' 5a medium, fetal bovine serum, and penicillin/streptomycin antibiotics were purchased from Vicente. CellTiter-Glo (chemiluminescence detection reagent for cell viability) reagent was purchased from Promega. The HCT116 cell line was purchased from Cobioer Biosciences Co., Ltd. Nivo Multilabel Analyzer (PerkinElmer).
as §3, with “method: HCT116” for “method: MDA-MB-468”, “1000 HCT116” for “1000 MDA-MB-468”, “from 2” for “from 10”, “to 5.12” for “to 25.6”, “plate. […]” for “plate. The concentration of compound transferred to the cell plate ranged from 50 μM to 0.128 nM. The cell plate was incubated in a carbon dioxide incubator for 7 days.”, “reading. […]” for “reading.”

T3 sequence (Q00534 whole entry): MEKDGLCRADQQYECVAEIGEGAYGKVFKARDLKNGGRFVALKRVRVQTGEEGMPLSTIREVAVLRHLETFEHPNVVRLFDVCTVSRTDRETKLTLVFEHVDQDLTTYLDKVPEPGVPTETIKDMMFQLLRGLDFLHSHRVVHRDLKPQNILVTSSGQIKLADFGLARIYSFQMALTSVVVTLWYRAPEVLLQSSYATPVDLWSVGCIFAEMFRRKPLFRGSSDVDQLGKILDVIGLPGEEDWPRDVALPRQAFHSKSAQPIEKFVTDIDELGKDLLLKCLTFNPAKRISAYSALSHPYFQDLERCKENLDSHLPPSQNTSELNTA
T3 sequence (P24385 whole entry partner): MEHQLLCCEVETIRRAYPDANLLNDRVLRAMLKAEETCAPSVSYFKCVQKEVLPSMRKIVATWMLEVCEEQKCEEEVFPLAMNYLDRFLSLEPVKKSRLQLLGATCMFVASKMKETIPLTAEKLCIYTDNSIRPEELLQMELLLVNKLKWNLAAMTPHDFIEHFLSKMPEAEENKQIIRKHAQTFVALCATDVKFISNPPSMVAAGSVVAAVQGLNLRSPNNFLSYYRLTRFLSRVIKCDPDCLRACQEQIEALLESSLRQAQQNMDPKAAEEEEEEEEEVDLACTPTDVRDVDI
T2 sequence (P11802 whole entry): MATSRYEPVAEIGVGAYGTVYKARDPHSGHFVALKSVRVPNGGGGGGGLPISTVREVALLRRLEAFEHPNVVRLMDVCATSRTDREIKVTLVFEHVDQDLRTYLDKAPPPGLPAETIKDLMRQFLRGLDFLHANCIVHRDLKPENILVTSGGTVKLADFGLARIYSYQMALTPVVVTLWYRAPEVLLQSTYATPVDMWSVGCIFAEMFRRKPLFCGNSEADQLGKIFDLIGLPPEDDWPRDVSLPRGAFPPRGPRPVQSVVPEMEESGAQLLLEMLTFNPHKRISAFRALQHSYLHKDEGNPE
T2 sequence (P24385 whole entry partner): as the sequence (P24385 whole entry partner) above
T4 sequence (P50750 whole entry): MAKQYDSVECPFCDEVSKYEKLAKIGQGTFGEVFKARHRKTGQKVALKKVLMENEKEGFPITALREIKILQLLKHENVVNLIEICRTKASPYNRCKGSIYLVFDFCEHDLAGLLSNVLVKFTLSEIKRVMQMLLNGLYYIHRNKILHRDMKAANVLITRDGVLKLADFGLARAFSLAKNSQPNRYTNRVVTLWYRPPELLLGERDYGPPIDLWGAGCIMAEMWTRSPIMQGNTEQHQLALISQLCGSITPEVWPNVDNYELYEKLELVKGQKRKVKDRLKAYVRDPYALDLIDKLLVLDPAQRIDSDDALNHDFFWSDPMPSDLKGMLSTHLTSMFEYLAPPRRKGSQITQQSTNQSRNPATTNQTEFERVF
T4 sequence (O60563 whole entry partner): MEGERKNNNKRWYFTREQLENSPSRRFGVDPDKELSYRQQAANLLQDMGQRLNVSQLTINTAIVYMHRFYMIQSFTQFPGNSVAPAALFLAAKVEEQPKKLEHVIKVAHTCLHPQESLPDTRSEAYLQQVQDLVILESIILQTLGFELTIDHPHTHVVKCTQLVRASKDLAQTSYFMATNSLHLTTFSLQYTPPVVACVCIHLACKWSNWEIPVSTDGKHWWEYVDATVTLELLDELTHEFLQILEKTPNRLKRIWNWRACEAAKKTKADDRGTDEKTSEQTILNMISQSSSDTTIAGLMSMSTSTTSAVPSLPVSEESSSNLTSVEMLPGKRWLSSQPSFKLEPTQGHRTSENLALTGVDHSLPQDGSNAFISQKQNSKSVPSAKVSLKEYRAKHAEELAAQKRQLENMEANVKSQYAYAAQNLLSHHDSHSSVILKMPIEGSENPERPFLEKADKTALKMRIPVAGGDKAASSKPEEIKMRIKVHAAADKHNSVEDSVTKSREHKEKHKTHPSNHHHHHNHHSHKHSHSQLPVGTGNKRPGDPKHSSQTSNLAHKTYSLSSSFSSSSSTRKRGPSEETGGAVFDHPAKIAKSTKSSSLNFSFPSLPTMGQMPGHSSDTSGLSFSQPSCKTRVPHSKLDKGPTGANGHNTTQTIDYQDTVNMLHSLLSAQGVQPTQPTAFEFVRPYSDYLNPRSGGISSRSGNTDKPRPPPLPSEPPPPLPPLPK

With `C[C@@]1(O)CCC[C@H]1N1C(=O)CCc2cnc(NC3CCN(S(=O)(=O)C4CC4)CC3)nc21` [Compound 3], the IC50 worked out at 1.18 nM at CDK2/CyclinA2, 23.6 nM at CDK4/CyclinD1 and 4.74 nM at CDK6/CyclinD1.

`CCS(=O)(=O)N1CCC(Nc2ncc3c(n2)N([C@@H]2CCC[C@@]2(C)O)C(=O)CC3)CC1` [Compound 4]: the IC50 was determined as 1.32 nM on CDK2/CyclinA2, 37.5 nM at CDK4/CyclinD1 and 5.42 nM on CDK6/CyclinD1.

On to `CC(C)S(=O)(=O)N1CCC(Nc2ncc3c(n2)N([C@@H]2CCC[C@@]2(C)O)C(=O)CC3)CC1` [Compound 5], for which the IC50 on CDK2/CyclinA2 was 1.74 nM; at CDK4/CyclinD1, 46.9 nM; at CDK6/CyclinD1, 8.95 nM.

Regarding `COCCS(=O)(=O)N1CCC(Nc2ncc3c(n2)N([C@@H]2CCC[C@@]2(C)O)C(=O)CC3)CC1` [Compound 6], the IC50 on CDK2/CyclinA2 amounted to 1.13 nM; at CDK4/CyclinD1 it was 38.1 nM; on CDK6/CyclinD1, 5.26 nM.

Regarding `C[C@@]1(O)CCC[C@H]1N1C(=O)CCc2cnc(NC3CCN(S(=O)(=O)C4CNC4)CC3)nc21` [Compound 7], the IC50 on CDK2/CyclinA2 stood at 1.4 nM; at CDK4/CyclinD1, 3.99 nM; on CDK6/CyclinD1 it was 1.52 nM.

`CCN1CC(S(=O)(=O)N2CCC(Nc3ncc4c(n3)N([C@@H]3CCC[C@@]3(C)O)C(=O)CC4)CC2)C1` [Compound 8]: the IC50 worked out at 1.78 nM on CDK2/CyclinA2, 14.9 nM at CDK4/CyclinD1 and 3.4 nM at CDK6/CyclinD1.

Turning to `CC(C)N1CC(S(=O)(=O)N2CCC(Nc3ncc4c(n3)N([C@@H]3CCC[C@@]3(C)O)C(=O)CC4)CC2)C1` [Compound 9], the IC50 was found to be 1.4 nM on CDK2/CyclinA2, 15.7 nM at CDK4/CyclinD1 and 3.69 nM at CDK6/CyclinD1.

As for `CN1CC(S(=O)(=O)N2CCC(Nc3ncc4c(n3)N([C@@H]3CCC[C@@]3(C)O)C(=O)CC4)CC2)C1` [Compound 10], the IC50 is 1.52 nM at CDK2/CyclinA2, 9.09 nM at CDK4/CyclinD1 and 2.65 nM on CDK6/CyclinD1.

Consider `C[C@@]1(O)CCC[C@H]1n1c(=O)c(C(F)F)cc2cnc(NC3CCN(S(C)(=O)=O)CC3)nc21` [PF-06873600, reference compound], for which the IC50 on CDK9/CyclinT1 was found to be 17.2 nM; in the experiment on HCC1806 cells it was 458 nM; in the experiment with MDA-MB-468 cells, 120 nM; in the experiment with HCT116 cells, 140 nM.
